From ChEMBL document CHEMBL5696443 (Clin Cancer Res, 2016)
Activity calls are given as the source filed them. No cut-off for these calls is given here.

Tests used:
[1] = biological target: Tyrosine-protein kinase Blk (Homo sapiens, UniProt P51451); experiment: Inhibition of human BLK using poly (Glu, Tyr)4:1 as substrate in presence of [gamma33P]-ATP by HotSpot assay
[2] = biological target: Tyrosine-protein kinase Fyn (Homo sapiens, UniProt P06241); experiment: Inhibition of human FYN using poly (Glu, Tyr)4:1 as substrate in presence of [gamma33P]-ATP by HotSpot assay
[3] = biological target: Tyrosine-protein kinase CSK (Homo sapiens, UniProt P41240); experiment: Inhibition of human CSK using poly (Glu, Tyr)4:1 as substrate in presence of [gamma33P]-ATP by HotSpot assay
[4] = biological target: Death-associated protein kinase 3 (Homo sapiens) (UniProt O43293); experiment: Inhibition of human DAPK3 at 1 uM using KKLNRTLSFAEPG as substrate in presence of [gamma33P]-ATP by HotSpot assay relative to control
[5] = biological target: Dual specificity tyrosine-phosphorylation-regulated kinase 2 (Homo sapiens) (UniProt Q92630); experiment: Inhibition of human DYRK2 at 1 uM using RRRFRPASPLRGPPK as substrate in presence of [gamma33P]-ATP by HotSpot assay relative to control
[6] = biological target: Ephrin type-B receptor 2 (Homo sapiens) (UniProt P29323); experiment: Inhibition of human EPHB2 at 1 uM using poly (Glu, Tyr)4:1 as substrate in presence of [gamma33P]-ATP by HotSpot assay relative to control
[7] = biological target: Vascular endothelial growth factor receptor 1 (Homo sapiens) (UniProt P17948); experiment: Inhibition of human FLT1 at 1 uM using poly (Glu, Tyr)4:1 as substrate in presence of [gamma33P]-ATP by HotSpot assay relative to control
[8] = biological target: Glycogen synthase kinase-3 beta (Homo sapiens) (UniProt P49841); experiment: Inhibition of human GSK3beta at 1 uM using YRRAAVPPSPSLSRHSSPHQ(pS)EDEEE as substrate in presence of [gamma33P]-ATP by HotSpot assay relative to control
[9] = biological target: Mitogen-activated protein kinase kinase kinase 5 (Homo sapiens) (UniProt Q99683); experiment: Inhibition of human MAP3K5 at 1 uM using MBP as substrate in presence of [gamma33P]-ATP by HotSpot assay relative to control
[10] = biological target: Serine/threonine-protein kinase PAK 3 (Homo sapiens) (UniProt O75914); experiment: Inhibition of human PAK3 at 1 uM using RRRLSFAEPG as substrate in presence of [gamma33P]-ATP by HotSpot assay relative to control
[11] = biological target: Lymphokine-activated killer T-cell-originated protein kinase (Homo sapiens) (UniProt Q96KB5); experiment: Inhibition of human PBK at 1 uM using MBP as substrate in presence of [gamma33P]-ATP by HotSpot assay relative to control
[12] = tested on: Platelet-derived growth factor receptor alpha (Homo sapiens), P16234 [V561D]; experiment: Inhibition of human PDGFRalpha V561D mutant at 1 uM using poly (Glu, Tyr)4:1 as substrate in presence of [gamma33P]-ATP by HotSpot assay relative to control
[13] = tested on: Mus musculus; experiment: In vivo inhibition of ALK signaling in SCID Beige mouse xenografted with ALK positive human KARPAS-299 cells assessed as reduction in phosphorylated STAT3 level at 10 to 50 mg/kg, po administered as single dose and measured at 6 to 24 hrs by immunoblot analysis; type: functional, organism-based; conditions: dose 10-50 mg/kg, time 6-24 hrs
[14] = tested on: NCI-H3122; conditions: time 72 hrs
[15] = tested on: EML4-ALK (Homo sapiens), Q9UM73+Q9HC35 [C1156Y]; conditions: BaF3, time 3-5 weeks
[16] = tested on: EML4-ALK (Homo sapiens), Q9UM73+Q9HC35 [E1210K]; conditions: BaF3, time 3-5 weeks
[17] = tested on: EML4-ALK (Homo sapiens), Q9UM73+Q9HC35 [V1180L]; conditions: BaF3, dose 500.0 nmol/L, time 3-5 weeks

Chain of Mitogen-activated protein kinase kinase kinase 5 (Homo sapiens) (Q99683 whole entry): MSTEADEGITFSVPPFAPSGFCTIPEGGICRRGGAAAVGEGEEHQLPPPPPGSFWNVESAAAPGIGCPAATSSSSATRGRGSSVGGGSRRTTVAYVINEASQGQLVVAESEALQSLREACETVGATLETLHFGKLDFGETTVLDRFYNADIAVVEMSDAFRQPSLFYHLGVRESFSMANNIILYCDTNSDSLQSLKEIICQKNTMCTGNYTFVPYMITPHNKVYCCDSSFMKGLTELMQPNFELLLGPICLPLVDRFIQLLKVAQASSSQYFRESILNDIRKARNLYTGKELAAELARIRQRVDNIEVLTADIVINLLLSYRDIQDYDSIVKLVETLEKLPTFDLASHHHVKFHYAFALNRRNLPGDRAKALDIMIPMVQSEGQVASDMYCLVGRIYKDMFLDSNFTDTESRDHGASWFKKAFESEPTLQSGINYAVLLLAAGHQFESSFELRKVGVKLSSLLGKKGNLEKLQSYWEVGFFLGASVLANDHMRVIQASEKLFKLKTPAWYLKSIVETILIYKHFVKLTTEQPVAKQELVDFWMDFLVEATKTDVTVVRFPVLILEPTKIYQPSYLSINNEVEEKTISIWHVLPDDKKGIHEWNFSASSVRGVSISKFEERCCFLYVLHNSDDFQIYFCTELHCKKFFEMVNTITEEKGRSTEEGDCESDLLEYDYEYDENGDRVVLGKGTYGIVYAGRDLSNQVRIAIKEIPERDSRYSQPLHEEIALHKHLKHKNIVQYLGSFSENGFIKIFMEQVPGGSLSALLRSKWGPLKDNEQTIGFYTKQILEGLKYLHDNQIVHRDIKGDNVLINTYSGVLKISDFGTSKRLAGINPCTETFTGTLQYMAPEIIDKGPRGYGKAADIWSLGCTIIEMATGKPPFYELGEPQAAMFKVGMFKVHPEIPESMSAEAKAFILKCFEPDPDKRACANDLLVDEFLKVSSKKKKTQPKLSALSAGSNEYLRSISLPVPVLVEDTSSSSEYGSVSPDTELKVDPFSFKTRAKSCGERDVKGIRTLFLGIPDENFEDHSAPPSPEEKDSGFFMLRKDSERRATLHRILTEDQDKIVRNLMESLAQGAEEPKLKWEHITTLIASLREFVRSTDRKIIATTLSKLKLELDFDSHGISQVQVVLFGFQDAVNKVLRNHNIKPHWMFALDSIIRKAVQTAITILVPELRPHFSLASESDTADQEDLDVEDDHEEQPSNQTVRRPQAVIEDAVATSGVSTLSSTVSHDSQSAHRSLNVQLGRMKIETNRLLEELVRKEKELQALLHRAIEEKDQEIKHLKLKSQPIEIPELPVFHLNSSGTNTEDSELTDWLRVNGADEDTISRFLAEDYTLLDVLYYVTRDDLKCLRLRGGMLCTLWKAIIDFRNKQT
Chain of Ephrin type-B receptor 2 (Homo sapiens) (P29323 whole entry): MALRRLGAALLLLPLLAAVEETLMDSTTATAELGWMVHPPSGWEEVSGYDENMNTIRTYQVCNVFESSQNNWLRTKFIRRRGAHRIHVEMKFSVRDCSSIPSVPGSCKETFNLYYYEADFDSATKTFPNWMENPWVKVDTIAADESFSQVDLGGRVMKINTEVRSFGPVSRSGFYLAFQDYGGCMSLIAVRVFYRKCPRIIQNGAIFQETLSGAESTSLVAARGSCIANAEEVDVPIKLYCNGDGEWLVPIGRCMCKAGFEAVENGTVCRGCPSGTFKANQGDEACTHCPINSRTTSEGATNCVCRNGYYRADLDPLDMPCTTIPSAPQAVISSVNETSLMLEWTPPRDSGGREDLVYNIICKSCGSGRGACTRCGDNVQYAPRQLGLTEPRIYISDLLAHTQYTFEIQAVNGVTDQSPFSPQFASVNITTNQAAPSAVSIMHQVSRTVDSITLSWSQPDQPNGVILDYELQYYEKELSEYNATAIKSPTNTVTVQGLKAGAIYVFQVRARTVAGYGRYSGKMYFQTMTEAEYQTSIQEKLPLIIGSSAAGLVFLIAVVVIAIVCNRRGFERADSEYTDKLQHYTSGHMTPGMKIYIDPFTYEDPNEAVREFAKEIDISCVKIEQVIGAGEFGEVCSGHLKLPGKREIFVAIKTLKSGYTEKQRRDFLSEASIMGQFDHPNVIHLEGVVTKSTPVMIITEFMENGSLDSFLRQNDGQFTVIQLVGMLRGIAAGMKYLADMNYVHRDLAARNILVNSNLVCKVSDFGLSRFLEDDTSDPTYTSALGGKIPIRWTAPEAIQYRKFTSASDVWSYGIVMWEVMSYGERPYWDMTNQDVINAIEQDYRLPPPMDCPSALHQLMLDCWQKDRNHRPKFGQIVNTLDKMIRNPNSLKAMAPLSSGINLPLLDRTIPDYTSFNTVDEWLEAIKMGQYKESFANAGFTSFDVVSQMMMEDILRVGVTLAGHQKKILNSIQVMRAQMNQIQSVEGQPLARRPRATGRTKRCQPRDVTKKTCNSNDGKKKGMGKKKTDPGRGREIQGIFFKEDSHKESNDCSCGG
Chain of Dual specificity tyrosine-phosphorylation-regulated kinase 2 (Homo sapiens) (Q92630 whole entry): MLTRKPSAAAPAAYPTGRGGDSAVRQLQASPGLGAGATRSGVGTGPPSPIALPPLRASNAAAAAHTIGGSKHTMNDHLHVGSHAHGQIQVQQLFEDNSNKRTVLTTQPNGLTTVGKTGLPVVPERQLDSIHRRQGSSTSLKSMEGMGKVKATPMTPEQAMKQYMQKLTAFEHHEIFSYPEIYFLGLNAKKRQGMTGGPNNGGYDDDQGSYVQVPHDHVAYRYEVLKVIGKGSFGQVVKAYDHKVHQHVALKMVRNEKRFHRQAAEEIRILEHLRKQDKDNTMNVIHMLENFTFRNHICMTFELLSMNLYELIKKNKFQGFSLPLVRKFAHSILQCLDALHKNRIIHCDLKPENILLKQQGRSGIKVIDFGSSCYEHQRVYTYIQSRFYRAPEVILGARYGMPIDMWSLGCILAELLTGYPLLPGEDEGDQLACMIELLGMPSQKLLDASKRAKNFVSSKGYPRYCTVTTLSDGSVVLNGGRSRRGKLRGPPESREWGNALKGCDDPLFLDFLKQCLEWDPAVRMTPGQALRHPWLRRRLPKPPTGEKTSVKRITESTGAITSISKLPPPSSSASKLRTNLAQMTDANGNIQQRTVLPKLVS
Chain of Glycogen synthase kinase-3 beta (Homo sapiens) (P49841 whole entry, looked up): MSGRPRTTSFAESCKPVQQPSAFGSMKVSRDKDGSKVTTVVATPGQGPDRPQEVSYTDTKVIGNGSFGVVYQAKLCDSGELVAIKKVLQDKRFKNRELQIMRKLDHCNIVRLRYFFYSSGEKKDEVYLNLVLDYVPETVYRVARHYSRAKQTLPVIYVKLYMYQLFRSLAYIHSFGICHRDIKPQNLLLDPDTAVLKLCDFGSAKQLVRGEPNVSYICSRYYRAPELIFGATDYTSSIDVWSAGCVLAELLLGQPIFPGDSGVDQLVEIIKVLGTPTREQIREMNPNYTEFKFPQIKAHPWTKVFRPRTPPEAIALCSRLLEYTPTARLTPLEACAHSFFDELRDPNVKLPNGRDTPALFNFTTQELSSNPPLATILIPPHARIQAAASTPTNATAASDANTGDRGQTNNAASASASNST
Chain of Tyrosine-protein kinase Fyn (P06241 whole entry): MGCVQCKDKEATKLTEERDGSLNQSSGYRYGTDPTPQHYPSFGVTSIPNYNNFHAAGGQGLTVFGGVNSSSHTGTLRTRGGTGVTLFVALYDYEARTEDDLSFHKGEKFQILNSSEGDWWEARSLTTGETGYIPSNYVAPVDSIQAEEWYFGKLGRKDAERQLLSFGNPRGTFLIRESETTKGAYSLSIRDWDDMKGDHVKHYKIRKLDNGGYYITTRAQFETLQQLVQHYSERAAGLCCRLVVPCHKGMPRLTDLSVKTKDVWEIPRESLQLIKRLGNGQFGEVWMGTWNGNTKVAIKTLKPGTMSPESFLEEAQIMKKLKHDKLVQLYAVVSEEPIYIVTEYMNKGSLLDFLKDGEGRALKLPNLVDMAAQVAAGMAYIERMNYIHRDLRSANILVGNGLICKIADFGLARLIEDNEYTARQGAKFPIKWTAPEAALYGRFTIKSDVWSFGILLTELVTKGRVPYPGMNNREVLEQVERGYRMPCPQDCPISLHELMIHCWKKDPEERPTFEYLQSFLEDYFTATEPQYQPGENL
Chain of Platelet-derived growth factor receptor alpha (Homo sapiens), P16234 [V561D] (P16234 whole entry V561D): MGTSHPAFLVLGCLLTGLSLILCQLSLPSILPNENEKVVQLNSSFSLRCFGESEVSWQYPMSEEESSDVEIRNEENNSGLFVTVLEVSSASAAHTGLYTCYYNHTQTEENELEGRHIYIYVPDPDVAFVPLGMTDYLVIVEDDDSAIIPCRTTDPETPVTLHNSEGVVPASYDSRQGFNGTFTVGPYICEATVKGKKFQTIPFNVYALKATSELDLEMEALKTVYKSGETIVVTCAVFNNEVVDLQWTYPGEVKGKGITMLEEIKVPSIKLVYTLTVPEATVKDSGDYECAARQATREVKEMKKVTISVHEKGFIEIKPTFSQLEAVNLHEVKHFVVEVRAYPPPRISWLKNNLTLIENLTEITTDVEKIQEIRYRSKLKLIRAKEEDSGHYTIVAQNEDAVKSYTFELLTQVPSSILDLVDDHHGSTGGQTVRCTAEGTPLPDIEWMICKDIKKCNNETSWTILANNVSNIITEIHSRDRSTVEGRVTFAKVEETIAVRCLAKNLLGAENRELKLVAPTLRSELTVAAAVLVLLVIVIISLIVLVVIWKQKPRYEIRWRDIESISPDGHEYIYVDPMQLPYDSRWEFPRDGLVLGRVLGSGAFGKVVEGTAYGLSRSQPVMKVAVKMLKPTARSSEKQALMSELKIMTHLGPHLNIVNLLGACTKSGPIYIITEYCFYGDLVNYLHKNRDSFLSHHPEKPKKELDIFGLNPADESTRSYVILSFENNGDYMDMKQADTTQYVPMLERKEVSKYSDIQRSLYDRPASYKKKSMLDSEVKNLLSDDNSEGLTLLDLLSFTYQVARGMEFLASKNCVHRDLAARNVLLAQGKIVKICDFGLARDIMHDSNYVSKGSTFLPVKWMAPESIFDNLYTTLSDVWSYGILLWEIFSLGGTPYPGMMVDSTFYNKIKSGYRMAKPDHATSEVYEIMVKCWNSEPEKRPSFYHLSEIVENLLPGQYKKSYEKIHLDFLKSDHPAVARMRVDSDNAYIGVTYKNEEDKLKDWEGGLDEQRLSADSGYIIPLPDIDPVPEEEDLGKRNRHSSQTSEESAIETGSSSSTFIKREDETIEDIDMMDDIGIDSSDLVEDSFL

For COc1cc(N2CCC(N3CCN(C)CC3)CC2)ccc1Nc1ncc(Cl)c(Nc2ccccc2P(C)(C)=O)n1 [BRIGATINIB], the IC50 [1] was 0.136 µM, the IC50 [2] was 0.198 µM and the IC50 [3] was 0.329 µM. It also gave an inhibition [4] of under 90%, an inhibition [5] of under 90% and an inhibition [6] of under 90%. For the same compound, the inhibition [7] was under 90%, the inhibition [8] was under 90% and the inhibition [9] was under 90%. The inhibition [10] was under 90%, the inhibition [11] was under 90% and the inhibition [12] was under 90%. For the same compound, the Activity [13] was “Active”, the GI50 [14] was 0.004 µM and the IC90 [15] was 0.129 µM. The IC90 [16] was 0.366 µM and the inhibition [17] was “Active”.
